Like-named read-outs stand apart in the source and are kept apart here.

Common to all, as to assay: biochemical
Holding throughout (parameters): Eurofins KinaseProfiler full panel at Km ATP, residual kinase activity (%) relative to DMSO

In assay [1] the target is LIMK1(h) (Homo sapiens, UniProt P53667). The procedure, abridged: (§1)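 Two 10 µM single-concentration screens were run: a competition-binding screen, in which DNA-tagged kinase bound to immobilized ligands was quantified by qPCR, and a radiometric activity panel at Km ATP. Each is expressed as residual kinase activity (%).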
For assay [2], the target named is T1, IRR(h) (Homo sapiens, UniProt P14616).
T1 construct: gene INSRR
The procedure, abridged: as §1

Assay [3] concerns the target T2, PhKγ2(h) (Homo sapiens, UniProt P15735).
T2 construct: gene PHKG2
T2 sequence (P15735 1-406): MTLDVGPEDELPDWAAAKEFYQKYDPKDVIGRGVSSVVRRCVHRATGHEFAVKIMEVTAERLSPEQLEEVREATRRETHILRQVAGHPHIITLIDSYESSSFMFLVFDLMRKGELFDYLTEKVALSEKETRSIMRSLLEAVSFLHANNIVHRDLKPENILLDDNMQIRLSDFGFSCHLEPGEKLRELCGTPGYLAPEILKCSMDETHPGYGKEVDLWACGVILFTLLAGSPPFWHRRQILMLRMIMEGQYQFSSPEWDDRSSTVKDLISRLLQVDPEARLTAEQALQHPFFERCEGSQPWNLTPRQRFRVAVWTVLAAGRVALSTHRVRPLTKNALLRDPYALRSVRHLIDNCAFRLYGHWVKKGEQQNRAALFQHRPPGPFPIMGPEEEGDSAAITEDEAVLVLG
The procedure, abridged: as §1

In assay [4] the target is T3, Pim-2(h) (Homo sapiens, UniProt Q9P1W9).
T3 construct: gene PIM2
The procedure, abridged: as §1

Assay [5] addresses T4, SAPK3(h) (Homo sapiens, UniProt P53778).
T4 construct: gene MAPK12
T4 sequence (P53778 1-367): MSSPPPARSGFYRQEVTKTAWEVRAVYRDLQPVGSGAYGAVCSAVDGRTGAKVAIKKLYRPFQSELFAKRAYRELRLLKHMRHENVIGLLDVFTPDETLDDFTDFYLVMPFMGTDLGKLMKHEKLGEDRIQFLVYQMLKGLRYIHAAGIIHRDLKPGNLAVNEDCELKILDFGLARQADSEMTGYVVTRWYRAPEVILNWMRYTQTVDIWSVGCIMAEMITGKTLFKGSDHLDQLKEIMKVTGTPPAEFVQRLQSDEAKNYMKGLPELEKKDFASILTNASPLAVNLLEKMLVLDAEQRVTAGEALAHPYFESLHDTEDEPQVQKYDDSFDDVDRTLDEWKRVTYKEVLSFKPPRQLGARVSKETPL
The procedure, abridged: as §1

The target of assay [6] is FGFR4(h) (Homo sapiens, UniProt P22455). In outline: as §1
Assay [7] has as its target T5, FAK(h) (Homo sapiens, UniProt Q05397).
T5 construct: gene PTK2
The procedure, abridged:
as §1

Assay [8] concerns the target T6, Tec(h) activated (Homo sapiens, UniProt P42680).
T6 sequence (P42680 1-631): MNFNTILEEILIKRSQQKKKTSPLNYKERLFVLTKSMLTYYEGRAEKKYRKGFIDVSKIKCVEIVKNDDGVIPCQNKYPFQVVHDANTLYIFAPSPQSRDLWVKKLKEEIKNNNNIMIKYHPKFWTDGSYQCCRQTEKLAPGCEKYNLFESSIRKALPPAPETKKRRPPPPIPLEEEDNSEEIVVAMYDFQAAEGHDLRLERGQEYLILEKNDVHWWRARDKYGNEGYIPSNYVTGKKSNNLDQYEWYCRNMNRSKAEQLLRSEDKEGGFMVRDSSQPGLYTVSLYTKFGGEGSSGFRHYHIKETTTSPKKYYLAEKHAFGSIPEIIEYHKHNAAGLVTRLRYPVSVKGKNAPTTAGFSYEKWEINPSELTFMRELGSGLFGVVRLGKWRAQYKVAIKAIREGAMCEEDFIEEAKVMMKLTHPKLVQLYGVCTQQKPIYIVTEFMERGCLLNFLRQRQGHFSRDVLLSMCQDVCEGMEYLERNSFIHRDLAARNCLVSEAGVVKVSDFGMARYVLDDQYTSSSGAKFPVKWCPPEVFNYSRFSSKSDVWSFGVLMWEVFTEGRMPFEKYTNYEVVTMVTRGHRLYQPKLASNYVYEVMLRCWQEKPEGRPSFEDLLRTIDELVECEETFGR
The procedure, abridged: as §1

The target in assay [9] is NEK7(h) (Homo sapiens, UniProt Q8TDX7). The procedure, abridged: as §1
[10] abbreviates: read-out: Residual activity (%) Spautin-1 5aa.
[11] abbreviates: read-out: Residual activity (%) 5as.
The mark [12] stands for this setting: read-out: Residual activity (%) 5at.
Where [13] appears, read: read-out: Residual activity (%) 5ay.

Sequence of LIMK1(h) (P53667 whole entry): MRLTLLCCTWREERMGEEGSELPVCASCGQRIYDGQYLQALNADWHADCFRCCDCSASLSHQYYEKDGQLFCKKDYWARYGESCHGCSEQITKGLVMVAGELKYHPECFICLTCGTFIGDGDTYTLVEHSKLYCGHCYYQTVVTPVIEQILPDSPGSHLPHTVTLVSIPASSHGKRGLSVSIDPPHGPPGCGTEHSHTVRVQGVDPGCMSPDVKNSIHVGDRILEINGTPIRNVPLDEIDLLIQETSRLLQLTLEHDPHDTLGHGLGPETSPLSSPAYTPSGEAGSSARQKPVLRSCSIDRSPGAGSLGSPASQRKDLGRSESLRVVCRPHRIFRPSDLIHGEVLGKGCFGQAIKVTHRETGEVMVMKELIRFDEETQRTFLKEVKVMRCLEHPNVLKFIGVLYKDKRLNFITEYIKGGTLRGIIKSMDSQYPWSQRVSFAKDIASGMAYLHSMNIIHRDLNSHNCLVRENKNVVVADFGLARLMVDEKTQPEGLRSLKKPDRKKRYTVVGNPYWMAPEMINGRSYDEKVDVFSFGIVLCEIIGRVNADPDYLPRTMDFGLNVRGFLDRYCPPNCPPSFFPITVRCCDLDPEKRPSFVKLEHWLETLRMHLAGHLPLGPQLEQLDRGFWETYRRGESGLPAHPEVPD
T1 sequence (P14616 whole entry): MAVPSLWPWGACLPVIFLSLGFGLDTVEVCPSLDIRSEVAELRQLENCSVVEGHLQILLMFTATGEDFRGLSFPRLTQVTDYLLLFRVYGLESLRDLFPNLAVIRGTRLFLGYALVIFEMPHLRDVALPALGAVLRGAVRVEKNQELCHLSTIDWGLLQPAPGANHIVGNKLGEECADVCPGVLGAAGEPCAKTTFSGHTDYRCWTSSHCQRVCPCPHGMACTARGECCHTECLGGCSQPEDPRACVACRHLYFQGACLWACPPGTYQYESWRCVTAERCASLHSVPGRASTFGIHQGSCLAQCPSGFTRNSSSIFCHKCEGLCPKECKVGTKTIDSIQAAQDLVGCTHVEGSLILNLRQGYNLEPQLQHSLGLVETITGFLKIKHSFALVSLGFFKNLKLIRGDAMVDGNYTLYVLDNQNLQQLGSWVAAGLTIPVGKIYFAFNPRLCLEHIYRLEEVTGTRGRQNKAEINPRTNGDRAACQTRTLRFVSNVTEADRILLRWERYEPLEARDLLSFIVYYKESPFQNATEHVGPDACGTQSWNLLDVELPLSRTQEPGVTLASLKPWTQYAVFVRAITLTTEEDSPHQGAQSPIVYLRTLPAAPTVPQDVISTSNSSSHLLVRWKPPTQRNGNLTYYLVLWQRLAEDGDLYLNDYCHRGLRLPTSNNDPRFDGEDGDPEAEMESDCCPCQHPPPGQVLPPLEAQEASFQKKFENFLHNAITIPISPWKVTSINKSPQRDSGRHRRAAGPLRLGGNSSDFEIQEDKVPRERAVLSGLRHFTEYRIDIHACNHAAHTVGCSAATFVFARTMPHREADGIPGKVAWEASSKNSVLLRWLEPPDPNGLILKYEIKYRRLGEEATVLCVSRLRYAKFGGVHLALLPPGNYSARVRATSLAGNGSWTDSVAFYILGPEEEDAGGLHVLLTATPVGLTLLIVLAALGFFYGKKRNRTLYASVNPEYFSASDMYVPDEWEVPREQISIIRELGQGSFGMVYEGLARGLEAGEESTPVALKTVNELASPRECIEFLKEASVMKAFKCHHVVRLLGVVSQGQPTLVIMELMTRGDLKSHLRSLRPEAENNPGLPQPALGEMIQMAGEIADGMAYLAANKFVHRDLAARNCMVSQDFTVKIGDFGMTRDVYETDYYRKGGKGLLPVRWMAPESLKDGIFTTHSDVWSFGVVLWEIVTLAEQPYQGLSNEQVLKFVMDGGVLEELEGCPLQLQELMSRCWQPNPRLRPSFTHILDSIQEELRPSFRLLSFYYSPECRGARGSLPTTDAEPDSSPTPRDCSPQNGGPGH
Sequence of NEK7(h) (Q8TDX7 whole entry): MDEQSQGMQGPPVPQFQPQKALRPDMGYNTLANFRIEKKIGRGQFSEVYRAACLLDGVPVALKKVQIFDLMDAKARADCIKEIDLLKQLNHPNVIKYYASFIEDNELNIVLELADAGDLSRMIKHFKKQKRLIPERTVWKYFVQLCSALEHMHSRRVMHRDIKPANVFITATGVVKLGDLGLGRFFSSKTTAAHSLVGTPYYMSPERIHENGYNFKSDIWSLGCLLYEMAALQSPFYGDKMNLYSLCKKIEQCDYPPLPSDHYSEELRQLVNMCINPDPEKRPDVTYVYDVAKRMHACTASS
T3 sequence (Q9P1W9 whole entry): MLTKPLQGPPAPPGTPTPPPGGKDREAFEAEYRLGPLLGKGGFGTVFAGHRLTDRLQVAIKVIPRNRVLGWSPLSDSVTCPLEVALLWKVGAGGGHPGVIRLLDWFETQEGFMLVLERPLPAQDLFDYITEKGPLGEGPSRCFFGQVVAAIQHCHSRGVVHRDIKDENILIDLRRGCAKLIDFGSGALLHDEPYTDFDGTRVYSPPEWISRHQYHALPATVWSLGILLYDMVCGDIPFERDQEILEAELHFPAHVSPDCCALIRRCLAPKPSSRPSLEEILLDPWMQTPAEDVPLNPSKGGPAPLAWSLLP
T5 sequence (Q05397 whole entry): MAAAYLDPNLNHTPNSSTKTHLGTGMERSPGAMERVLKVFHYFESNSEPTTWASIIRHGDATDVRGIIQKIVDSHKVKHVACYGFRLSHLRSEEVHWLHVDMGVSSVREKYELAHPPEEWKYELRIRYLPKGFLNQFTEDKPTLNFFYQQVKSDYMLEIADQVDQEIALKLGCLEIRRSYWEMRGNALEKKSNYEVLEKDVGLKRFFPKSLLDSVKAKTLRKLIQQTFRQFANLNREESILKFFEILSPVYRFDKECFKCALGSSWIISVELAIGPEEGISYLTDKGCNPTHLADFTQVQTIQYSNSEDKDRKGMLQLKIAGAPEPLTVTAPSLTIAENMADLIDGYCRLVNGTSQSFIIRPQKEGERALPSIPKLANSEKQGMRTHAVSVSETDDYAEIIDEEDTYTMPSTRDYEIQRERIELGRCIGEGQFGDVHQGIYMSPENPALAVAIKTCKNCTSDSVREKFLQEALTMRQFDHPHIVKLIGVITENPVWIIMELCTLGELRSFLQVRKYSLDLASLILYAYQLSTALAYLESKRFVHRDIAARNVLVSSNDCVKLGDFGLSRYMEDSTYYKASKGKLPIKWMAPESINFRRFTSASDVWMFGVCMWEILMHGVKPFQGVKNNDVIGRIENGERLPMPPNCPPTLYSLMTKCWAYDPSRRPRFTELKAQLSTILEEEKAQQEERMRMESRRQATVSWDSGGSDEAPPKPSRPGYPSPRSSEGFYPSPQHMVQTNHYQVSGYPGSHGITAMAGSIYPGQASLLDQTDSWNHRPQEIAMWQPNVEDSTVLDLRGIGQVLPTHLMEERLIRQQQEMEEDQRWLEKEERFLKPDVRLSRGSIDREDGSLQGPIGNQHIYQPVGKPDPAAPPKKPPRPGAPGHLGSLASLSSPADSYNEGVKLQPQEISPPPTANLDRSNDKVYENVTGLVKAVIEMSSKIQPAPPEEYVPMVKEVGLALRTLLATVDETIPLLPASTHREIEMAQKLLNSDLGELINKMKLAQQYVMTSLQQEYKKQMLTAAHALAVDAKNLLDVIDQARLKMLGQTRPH
Sequence of FGFR4(h) (P22455 whole entry): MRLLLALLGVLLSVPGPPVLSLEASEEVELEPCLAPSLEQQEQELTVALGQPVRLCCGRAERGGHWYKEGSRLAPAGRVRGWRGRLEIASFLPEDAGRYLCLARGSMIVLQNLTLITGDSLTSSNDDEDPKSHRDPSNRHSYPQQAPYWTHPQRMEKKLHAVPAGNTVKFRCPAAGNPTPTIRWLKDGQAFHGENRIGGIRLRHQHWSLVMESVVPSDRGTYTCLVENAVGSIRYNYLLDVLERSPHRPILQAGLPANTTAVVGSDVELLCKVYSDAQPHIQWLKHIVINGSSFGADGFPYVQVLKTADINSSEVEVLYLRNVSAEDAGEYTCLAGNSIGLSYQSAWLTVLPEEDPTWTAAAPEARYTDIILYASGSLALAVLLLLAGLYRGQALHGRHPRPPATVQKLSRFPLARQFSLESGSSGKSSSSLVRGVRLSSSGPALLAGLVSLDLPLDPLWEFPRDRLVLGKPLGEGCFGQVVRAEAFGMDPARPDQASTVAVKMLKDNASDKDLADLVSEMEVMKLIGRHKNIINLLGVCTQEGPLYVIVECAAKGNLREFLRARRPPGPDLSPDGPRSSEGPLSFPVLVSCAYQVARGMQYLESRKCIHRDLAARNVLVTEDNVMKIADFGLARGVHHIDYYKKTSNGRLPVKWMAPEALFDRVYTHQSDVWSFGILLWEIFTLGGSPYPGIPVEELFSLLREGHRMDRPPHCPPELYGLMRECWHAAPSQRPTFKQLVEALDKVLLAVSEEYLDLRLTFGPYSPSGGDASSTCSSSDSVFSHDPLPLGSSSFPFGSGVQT

For the molecule `Fc1ccc(CNc2ncnc3ccc(F)cc23)cc1` [5aa, 6-Fluoro-N-(4-fluorobenzyl)-4-Quinazolinamine], the remaining activity at 10 µM in [1] (setting [10]) was determined as 97%; in assay [2] (setting [10]), 93%; in assay [3] (setting [10]), 78%; in [4] (setting [10]) it was 80%; in [5] (setting [10]) it was 106%; in assay [6] (setting [10]), 99%. In addition, the remaining activity at 10 µM came out at 84% in assay [7] (setting [10]), 78% in assay [8] (setting [10]) and 95% in assay [9] (setting [10]).

Take `Fc1ccc(CCNc2ncnc3ccc(F)cc23)cc1` [5as, 6-Fluoro-N-[2-(4-Fluorophenyl)Ethyl]-4-Quinazolinamine]: the remaining activity at 10 µM was determined as 76% in assay [1] (setting [11]); 87% in [2] (setting [11]); 91% in [3] (setting [11]); 73% in assay [4] (setting [11]); 114% in assay [5] (setting [11]); 93% in [6] (setting [11]). The remaining activity at 10 µM in assay [7] (setting [11]) stood at 88%; in assay [8] (setting [11]) it was 100%; in [9] (setting [11]), 74%.

Take `Fc1ccc2ncnc(NCCc3ccc(Cl)cc3)c2c1` [5at, N-[2-(4-Chlorophenyl)Ethyl]-6-Fluoro-4-Quinazolinamine]: the remaining activity at 10 µM was found to be 72% in assay [1] (setting [12]); 79% in assay [2] (setting [12]); 82% in assay [3] (setting [12]); 70% in [4] (setting [12]); 87% in [5] (setting [12]); 96% in assay [6] (setting [12]). In addition, the remaining activity at 10 µM in assay [7] (setting [12]) turned out to be 83%; in [8] (setting [12]), 86%; in assay [9] (setting [12]), 83%.

Consider `COc1ccc2ncnc(Nc3cccc(F)c3)c2c1` [5ay, N-(3-Fluorophenyl)-6-Methoxy-4-Quinazolinamine], for which the remaining activity at 10 µM in assay [1] (setting [13]) was 64%; in assay [2] (setting [13]), 99%; in assay [3] (setting [13]), 109%; in assay [4] (setting [13]), 76%; in [5] (setting [13]), 101%; in [6] (setting [13]), 98%. Moreover, the figures for the remaining activity at 10 µM in [7] (setting [13]), in assay [8] (setting [13]) and in assay [9] (setting [13]) were 84%, 76% and 76%, respectively.

These data come from PMC7827406, “Structure–Activity Relationship (SAR) Study of Spautin-1 to Entail the Discovery of Novel NEK4 Inhibitors” (International Journal of Molecular Sciences, 2021).
